Common to all, as to assay type: cell-based
One data set has as its target T1, h-P2X2R (Homo sapiens, UniProt Q9UBL9).
T1 sequence (Q9UBL9 1-471): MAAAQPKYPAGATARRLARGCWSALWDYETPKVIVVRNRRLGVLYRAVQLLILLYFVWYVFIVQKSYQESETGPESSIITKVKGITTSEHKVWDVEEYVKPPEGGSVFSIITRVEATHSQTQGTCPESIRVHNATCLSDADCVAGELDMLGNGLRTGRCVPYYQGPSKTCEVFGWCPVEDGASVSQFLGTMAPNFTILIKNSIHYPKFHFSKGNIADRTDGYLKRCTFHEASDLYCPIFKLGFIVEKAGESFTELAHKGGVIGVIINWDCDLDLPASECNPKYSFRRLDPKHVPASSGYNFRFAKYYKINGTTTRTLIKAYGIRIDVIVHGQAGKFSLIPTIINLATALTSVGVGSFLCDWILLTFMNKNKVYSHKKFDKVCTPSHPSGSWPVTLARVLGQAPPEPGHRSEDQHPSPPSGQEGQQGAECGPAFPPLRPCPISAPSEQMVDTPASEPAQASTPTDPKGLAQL
The experiment in a line: Ca2+ influx assay. The conditions noted are these: for inhibition at 50 µM: 1321-N1, read-out: h-P2X2 % inhibition; for activity against h-P2X2 receptor (in words): SAR statement.

The next data set addresses T2, h-P2X7R (Homo sapiens, UniProt Q99572).
T2 sequence (Q99572 1-595): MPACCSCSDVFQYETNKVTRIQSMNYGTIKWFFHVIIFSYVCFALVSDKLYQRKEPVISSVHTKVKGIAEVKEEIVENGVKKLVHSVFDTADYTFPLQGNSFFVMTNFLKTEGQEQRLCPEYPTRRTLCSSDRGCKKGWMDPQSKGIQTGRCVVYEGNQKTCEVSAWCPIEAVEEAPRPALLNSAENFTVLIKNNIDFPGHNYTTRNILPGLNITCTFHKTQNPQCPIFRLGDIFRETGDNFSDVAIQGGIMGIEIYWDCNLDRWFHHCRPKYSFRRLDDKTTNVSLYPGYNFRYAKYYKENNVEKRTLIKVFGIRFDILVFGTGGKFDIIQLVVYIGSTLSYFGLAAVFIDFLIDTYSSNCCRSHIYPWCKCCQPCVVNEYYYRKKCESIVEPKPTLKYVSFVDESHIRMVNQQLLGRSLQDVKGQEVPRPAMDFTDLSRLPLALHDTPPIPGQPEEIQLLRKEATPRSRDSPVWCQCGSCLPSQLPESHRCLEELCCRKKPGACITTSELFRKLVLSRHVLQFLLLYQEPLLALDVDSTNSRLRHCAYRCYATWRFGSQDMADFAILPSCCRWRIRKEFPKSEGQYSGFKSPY
The experiment in a line: Ca2+ influx assay. The conditions noted are these: for inhibition at 50 µM: 1321-N1, read-out: h-P2X7 % inhibition.

Another data set concerns the target h-P2X5 receptor (Homo sapiens, UniProt Q93086). The experiment in a line: Ca2+ influx assay. The conditions noted are these: for inhibition at 50 µM: 1321-N1, read-out: h-P2X5 % inhibition.
A further data set can be described thus: Cytotoxicity assay. The settings on record: human, nontransfected 1321N1 astrocytoma cells.
Another data set addresses T3, h-P2X4R (Homo sapiens, UniProt Q99571).
T3 sequence (Q99571 1-388): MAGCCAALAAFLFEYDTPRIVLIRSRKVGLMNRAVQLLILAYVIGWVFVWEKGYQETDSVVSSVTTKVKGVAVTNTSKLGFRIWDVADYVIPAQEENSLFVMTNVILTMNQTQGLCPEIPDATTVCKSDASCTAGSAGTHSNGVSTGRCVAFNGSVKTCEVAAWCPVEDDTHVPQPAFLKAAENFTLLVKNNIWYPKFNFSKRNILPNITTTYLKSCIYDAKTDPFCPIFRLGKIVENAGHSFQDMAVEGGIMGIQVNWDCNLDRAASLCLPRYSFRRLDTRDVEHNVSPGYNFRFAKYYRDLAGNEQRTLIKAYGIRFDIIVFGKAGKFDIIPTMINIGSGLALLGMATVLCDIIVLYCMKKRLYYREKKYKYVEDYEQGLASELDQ
The experiment in a line: Ca2+ influx assay. The conditions noted are these: for inhibition at 50 µM: 1321-N1, read-out: h-P2X4 % inhibition.

The IC50 is the concentration at which inhibition is half-maximal. By inhibition is commonly meant the share of the control response that was lost under treatment.

Read-outs that look alike come from different tables or passages of the source. Bounds are passed on as bounds.

h-P2X5 receptor, sequence (Q93086 whole entry): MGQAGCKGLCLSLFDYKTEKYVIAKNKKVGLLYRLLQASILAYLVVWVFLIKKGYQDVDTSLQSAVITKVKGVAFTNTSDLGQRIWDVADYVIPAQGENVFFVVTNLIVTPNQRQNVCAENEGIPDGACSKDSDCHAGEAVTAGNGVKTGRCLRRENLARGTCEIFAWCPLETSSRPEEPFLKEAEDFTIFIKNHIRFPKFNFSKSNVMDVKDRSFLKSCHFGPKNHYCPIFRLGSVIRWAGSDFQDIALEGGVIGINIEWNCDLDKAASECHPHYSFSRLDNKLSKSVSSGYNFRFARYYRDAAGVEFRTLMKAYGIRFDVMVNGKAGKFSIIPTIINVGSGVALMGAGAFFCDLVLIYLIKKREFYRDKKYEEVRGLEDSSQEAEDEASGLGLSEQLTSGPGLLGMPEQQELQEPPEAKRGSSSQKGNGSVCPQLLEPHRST

Turning to `CC(=NNC(=O)c1ccccc1NS(C)(=O)=O)c1ccccc1` [6a, N-(2-(2-(1-Phenylethylidene)hydrazinecarbonyl)phenyl)methanesulfonamide], the IC50 was greater than 50 µM on h-P2X2R, 4.21 ± 0.01 µM at h-P2X7R, greater than 50 µM on h-P2X5 receptor and greater than 50 µM against h-P2X4R. The inhibition at 50 µM on h-P2X2R worked out at 20%; on h-P2X5 receptor, 20%; on h-P2X4R, 46%. The compound also registered a cytotoxicity at 24 h, 50 µM in “Cytotoxicity assay” of 14 ± 0.21%.
With `CC(=NNC(=O)c1ccccc1NS(C)(=O)=O)c1ccccc1F` [6b, N-(2-(2-(1-(2-Fluorophenyl)ethylidene)hydrazinecarbonyl)phenyl)methanesulfonamide], the concentration for half-maximal inhibition (IC50) on h-P2X2R was 1.91 ± 0.03 µM; on h-P2X5 receptor, greater than 50 µM; against h-P2X4R, greater than 50 µM. Further, the results for the inhibition at 50 µM on h-P2X5 receptor and on h-P2X4R were 16% and 40%, respectively. Moreover, the cytotoxicity at 24 h, 50 µM in “Cytotoxicity assay” turned out to be 11.4 ± 0.57%.
Regarding `CC(=NNC(=O)c1ccccc1NS(C)(=O)=O)c1cccc(Br)c1` [6c, N-(2-(2-(1-(3-Bromophenyl)ethylidene)hydrazinecarbonyl)phenyl)methanesulfonamide], the IC50 against h-P2X2R is greater than 50 µM; on h-P2X7R, 5.54 ± 0.05 µM; on h-P2X5 receptor, greater than 50 µM; on h-P2X4R it was greater than 50 µM. For the same compound, the inhibition at 50 µM on h-P2X2R worked out at 0%; on h-P2X5 receptor, 0%; at h-P2X4R, 24%. Further, on h-P2X2R, the “activity against h-P2X2 receptor (in words)” value was “loss of activity”. The cytotoxicity at 24 h, 50 µM in “Cytotoxicity assay” came to 15.1 ± 0.44%.
For `CC(=NNC(=O)c1ccccc1NS(C)(=O)=O)c1ccc(Cl)cc1` [6d, N-(2-(2-(1-(4-Chlorophenyl)ethylidene)hydrazinecarbonyl)phenyl)methanesulfonamide], the IC50 against h-P2X2R, on h-P2X7R, against h-P2X5 receptor and against h-P2X4R was greater than 50 µM throughout. Besides, the inhibition at 50 µM at h-P2X2R came to 15%; at h-P2X7R, 48%; at h-P2X5 receptor, 42%; at h-P2X4R, 18%. Further, on h-P2X2R, the “activity against h-P2X2 receptor (in words)” value is given as “loss of activity”. Also, in “Cytotoxicity assay”, the cytotoxicity at 24 h, 50 µM worked out at 6.96 ± 0.8%.
As for `CC(=NNC(=O)c1ccccc1NS(C)(=O)=O)c1ccc(Br)cc1` [6e, N-(2-(2-(1-(4-Bromophenyl)ethylidene)hydrazinecarbonyl)phenyl)methanesulfonamide], the IC50 at h-P2X2R is 3.22 ± 0.05 µM; at h-P2X7R, greater than 50 µM; against h-P2X5 receptor, greater than 50 µM; against h-P2X4R it was greater than 50 µM. For the same compound, the inhibition at 50 µM on h-P2X7R came out at 34%; on h-P2X5 receptor it was 10%; at h-P2X4R, 0%. Also, the cytotoxicity at 24 h, 50 µM in “Cytotoxicity assay” came to 16.8 ± 1.1%.
In the case of `CC(=NNC(=O)c1ccccc1NS(C)(=O)=O)c1ccc(I)cc1` [6f, N-(2-(2-(1-(4-Iodophenyl)ethylidene)hydrazinecarbonyl)phenyl)methanesulfonamide], the IC50 against h-P2X2R was 3.52 ± 0.07 µM; on h-P2X7R it was 10.01 ± 0.07 µM; on h-P2X5 receptor, greater than 50 µM; against h-P2X4R, greater than 50 µM. Further, the inhibition at 50 µM at h-P2X5 receptor came out at 21%; on h-P2X4R, 32%. The cytotoxicity at 24 h, 50 µM in “Cytotoxicity assay” came to 8.31 ± 0.33%.
Regarding `COc1ccc(C(C)=NNC(=O)c2ccccc2NS(C)(=O)=O)cc1` [6g, N-(2-(2-(1-(4-Methoxyphenyl)ethylidene)hydrazinecarbonyl)phenyl)methanesulfonamide], the concentration for half-maximal inhibition (IC50) against h-P2X2R was 3.48 ± 0.04 µM; against h-P2X7R, 2.09 ± 0.13 µM; against h-P2X5 receptor it was greater than 50 µM; at h-P2X4R, greater than 50 µM. The results for the inhibition at 50 µM at h-P2X5 receptor and on h-P2X4R were 26% and 45%, respectively. Further, the cytotoxicity at 24 h, 50 µM in “Cytotoxicity assay” was 5.29 ± 0.72%.
Take `CC(=NNC(=O)c1ccccc1NS(C)(=O)=O)c1cccs1` [7a, N-(2-(2-(1-(Thiophen-2-yl)ethylidene)hydrazinecarbonyl)phenyl)methanesulfonamide]: the IC50 at h-P2X2R was 1.57 ± 0.01 µM; on h-P2X7R, greater than 50 µM; against h-P2X5 receptor, greater than 50 µM; on h-P2X4R, greater than 50 µM. In addition, the inhibition at 50 µM at h-P2X7R was 45%; on h-P2X5 receptor, 29%; at h-P2X4R it was 24%. The cytotoxicity at 24 h, 50 µM in the data set “Cytotoxicity assay” is 11.6 ± 0.89%. For the same compound, on h-P2X4R (SAR statement), the “activity against h-P2X4 receptor (in words)” value is “inactive”.
In the case of `CC(=NNC(=O)c1ccccc1NS(C)(=O)=O)c1sccc1C` [7b, N-(2-(2-(1-(3-Methylthiophen-2-yl)ethylidene)hydrazinecarbonyl)phenyl)methanesulfonamide], the IC50 was 1.8 ± 0.02 µM on h-P2X2R, greater than 50 µM at h-P2X7R, greater than 50 µM against h-P2X5 receptor and greater than 50 µM at h-P2X4R. Also, the results for the inhibition at 50 µM at h-P2X7R, on h-P2X5 receptor and on h-P2X4R were 47%, 12% and 8%, respectively. Moreover, the cytotoxicity at 24 h, 50 µM in “Cytotoxicity assay” worked out at 10.7 ± 0.54%.
Take `CC(=NNC(=O)c1ccccc1NS(C)(=O)=O)c1cc(C)cs1` [7c, N-(2-(2-(1-(4-Methylthiophen-2-yl)ethylidene)hydrazinecarbonyl)phenyl)methanesulfonamide]: the concentration for half-maximal inhibition (IC50) against h-P2X2R is 1.59 ± 0.01 µM; on h-P2X7R it was 8.94 ± 0.01 µM; against h-P2X5 receptor it was greater than 50 µM; against h-P2X4R, 3.89 ± 0.05 µM. On h-P2X5 receptor, the inhibition at 50 µM is 31%. This compound returned a cytotoxicity at 24 h, 50 µM in “Cytotoxicity assay” of 5.98 ± 0.09%.
Turning to `CC(=NNC(=O)c1ccccc1NS(C)(=O)=O)c1ccc(C)s1` [7d, N-(2-(2-(1-(5-Methylthiophen-2-yl)ethylidene)hydrazinecarbonyl)phenyl)methanesulfonamide], the half-maximal inhibitory concentration (IC50) on h-P2X2R was 2.03 ± 0.04 µM; on h-P2X7R, 4.53 ± 0.11 µM; against h-P2X5 receptor, greater than 50 µM; at h-P2X4R, 3.21 ± 0.01 µM. The inhibition at 50 µM on h-P2X5 receptor is 46%. This compound displayed a cytotoxicity at 24 h, 50 µM in the data set “Cytotoxicity assay” of 1.57 ± 0.11%.
On to `CC(=NNC(=O)c1ccccc1NS(C)(=O)=O)c1ccc(Cl)s1` [7f, N-(2-(2-(1-(5-Chlorothiophen-2-yl)ethylidene)hydrazinecarbonyl)phenyl)methanesulfonamide], for which the IC50 at h-P2X2R is greater than 50 µM; against h-P2X7R it was 1.16 ± 0.03 µM; on h-P2X5 receptor, greater than 50 µM; against h-P2X4R it was 4.03 ± 0.07 µM. For the same compound, the inhibition at 50 µM stood at 37% at h-P2X2R and 0% on h-P2X5 receptor. Besides, in the data set “Cytotoxicity assay”, the cytotoxicity at 24 h, 50 µM amounted to 11.6 ± 0.26%.
Regarding `CC(=NNC(=O)c1ccccc1NS(C)(=O)=O)c1ccc([N+](=O)[O-])s1` [7g, N-(2-(2-(1-(5-Nitrothiophen-2-yl)ethylidene)hydrazinecarbonyl)phenyl)methanesulfonamide], the concentration for half-maximal inhibition (IC50) on h-P2X2R was greater than 50 µM; on h-P2X7R, 6.8 ± 0.21 µM; at h-P2X5 receptor it was greater than 50 µM; on h-P2X4R it was 2.44 ± 0.1 µM. Also, the inhibition at 50 µM at h-P2X2R stood at 26%; at h-P2X5 receptor, 19%. The compound further had a cytotoxicity at 24 h, 50 µM in “Cytotoxicity assay” of 23.8 ± 2.15%.
For the compound `Nc1c(S(=O)(=O)O)cc(Nc2ccc(Nc3nc(Cl)nc(Nc4cccc(S(=O)(=O)O)c4)n3)c(S(=O)(=O)O)c2)c2c1C(=O)c1ccccc1C2=O` [RB-2, Reactive Blue 2, reference compound], the half-inhibitory concentration (IC50) on h-P2X2R is 0.89 ± 0.41 µM; on h-P2X7R it was 2.79 ± 0.22 µM.
With `Cc1ccc(C(=O)Nc2ccc(S(=O)(=O)O)c3cc(S(=O)(=O)O)cc(S(=O)(=O)O)c23)cc1NC(=O)c1cccc(NC(=O)Nc2cccc(C(=O)Nc3cc(C(=O)Nc4ccc(S(=O)(=O)O)c5cc(S(=O)(=O)O)cc(S(=O)(=O)O)c45)ccc3C)c2)c1` [Suramin, reference compound], the IC50 on h-P2X5 receptor (read-out: h-P2X5 IC50 ± SEM, Ca2+ influx, ATP at EC80, n = 3) is 16.1 ± 0.5 µM.

The values above are taken from publication PMC8482771 (ACS Omega, 2021).
